The test system of this assay is TFEB. Put plainly: TFEB nuclear translocation in TFEB-GFP HeLa cells. The format is cell-based. Conditions: 4 hrs. Here is the method:
FIG. 3A is the graph showing the percentage of nuclear translocated TFEB for which TFEB-GFP HeLa cells were treated with MSL compound for 4 hrs and then nuclei of the cells were stained with DAPI. FIG. 3B is the results of the experiments in which HeLa cells were incubated in the presence of MSL compound or vehicle control for 24 hrs and then the acidic vesicular organelles formed were stained with acridine orange. FIG. 3C is the results of the experiments in which TFEB-GFP HeLa cells were treated with MSL compound or vehicle control for 4 hrs and then the cells were immunoblotted with the antibodies indicated. FIG. 3D and FIG. 3E is the result of measuring the calcineurin activity in the lysates of Hepa1c1c7 cells treated with the compounds indicated. Error bars, S.D. **, P<0.01;***, P<0.001.
FIG. 10 is the result of the experiments using compound of formula 2 (hereinafter referred to as MSL-7) of the present disclosure as an autophagic enhancer. FIG. 10A is the result of immuneblot using the antibodies indicated using Hela cells treated with MSL or MSL-7. FIG. 10B is the result of measuring the viability of Hela cells treated with vehicle control or various concentration of MSL-7 (50-100 μM) for 48 hrs. FIG. 10C is the result of DAPI stained nuclei of TFEB-GFP HeLa cells which were treated with vehicle control or MSL-7 for 4 hrs. The graph indicates the percentage of TFEB translocated into the nuclei. Error bars, S.D. *, P<0.05; **, P<0.01; ***, P<0.001.
Screening of autophagy enhancer. […] Luciferase assay. […] Firefly luciferase was determined after mixing 5 μl of lysate with 25 μl of Luciferase Assay Reagent II. Renilla luciferase was then determined after further addition of 20 ul of Stop&Glo Reagent. […] Cytotoxicity was determined by the measurement of LDH release in cell culture media using the LDH kit (Roche), according to the protocol from the manufacturer. […] Imaging and image quantification. […] Formation of acidic vesicular organelles was quantitated by staining the cells with acridine orange (Invitrogen, 5 ug/ml, 10 min). […]

These results are taken from patent US10881642B2, “Autophagy enhancer and use thereof” (Industry-Academic Cooperation Foundation, Yonsei University, priority 2016, dated 2021).

Entries after “also recorded” stand apart in the source; their conditions may differ.

On to `COc1oc(-c2ccccc2Cl)nc1S(=O)(=O)c1ccccc1` [MSL-7, 2-(2-chlorophenyl)-5-methoxy-4-(phenylsulfonyl) oxazole], for which the TFEB nuclear translocation entry is given as “induced nuclear translocation of TFEB; also recorded: in a dose-dependent manner”. For `CSc1oc(-c2ccccc2)nc1S(=O)(=O)c1ccc(F)cc1` [MSL], the TFEB nuclear translocation result was “translocated to the nuclei in the majority of MSL-treated HeLa cells”. The “percentage of nuclei showing TFEB positivity” value (compared to untreated cells) is recorded as “greatly increased”.
